What all share (assay): 3H-TdR (3H-thymidine) incorporation assay at 72 hr
One assay deals with H-460. In kind it is cell-based, Human. Conditions: 3H-TdR incorporation at 72 hr.
The next assay deals with MCF-7. In kind it is cell-based, Human. Conditions: 3H-TdR incorporation at 72 hr.
The next assay relates to SF-268. In kind it is cell-based, Human. Conditions: 3H-TdR incorporation at 72 hr.
The subject of another assay is CCRF-CEM. In kind it is cell-based. Conditions: 3H-TdR incorporation at 72 hr. The protocol: (§1) Table of IC50 Values (μM) for Controls
(§2) Exposition of 24 hr to drug, wash, incubated for another 48 hr (total of 72 hr assay)
(§3) (3H-Thymidine Incorporation Assay)

The subject of the next assay is CEM/dCK-. In kind it is cell-based. Conditions: for pIC50: deoxycytidine kinase-deficient CCRF-CEM; for Factor* (Resistance Factor = Ratio of dCK- on Wild-type CCRF-CEM): ratio of IC50 CEM/dCK- to CCRF-CEM, 24 h. Here is the method: as §1, §2, §3
[1] abbreviates: Homo sapiens, NCI-H460, read-out: IC50 H-460 24 h, 24 h drug exposure, wash, another 48 hr.
[2] abbreviates: Homo sapiens, MCF7, read-out: IC50 MCF-7 24 h, 24 h drug exposure, wash, another 48 hr.
The mark [3] stands for this setting: Homo sapiens, SF-268, read-out: IC50 SF-268 24 h, 24 h drug exposure, wash, another 48 hr.
Where [4] appears, read: Homo sapiens, CCRF-CEM, read-out: IC50 CCRF-CEM 24 h, 24 h drug exposure, wash, another 48 hr.
[5] abbreviates: Homo sapiens, CCRF-CEM, read-out: IC50 CEM/dCK- 24 h, 24 h drug exposure, wash, another 48 hr.

pIC50: −log10 of the molar value. Like-named read-outs stand apart in the source and are kept apart here.

As for `O=c1nc(NC2(c3ccccc3)c3ccccc3Oc3ccccc32)ccn1[C@@H]1CO[C@H](COC2(c3ccccc3)c3ccccc3Oc3ccccc32)O1` [Compound 144, 4-(9-PHENYL-9#H!- XANTHEN-9-YLAMINO)-1- [2-(9-PHENYL-9#H!- XANTHEN-9-YLOXYMETHYL)- [1,3]DIOXOLAN-4-YL]- 1#H!-PYRIMIDIN-2-ONE], the pIC50 was 5.52 with H-460 (setting [1]); 5.28 in the assay on MCF-7 (setting [2]); 5.72 in the assay on SF-268 (setting [3]); 6.15 with CCRF-CEM (setting [4]); 4.11 in the assay with CEM/dCK- (setting [5]). For the same molecule, in the assay with CEM/dCK-, the “Factor* (Resistance Factor = Ratio of dCK- on Wild-type CCRF-CEM)” value is 110.
For the molecule `Nc1ccn([C@@H]2CO[C@H](COC(=O)Oc3ccc(Cl)cc3)O2)c(=O)n1.O=C(O)C(F)(F)F` [Compound 105, CARBONIC ACID 4-(4- AMINO-2-OXO-2H- PYRIMIDIN-1-YL)- [1,3]DIOXOLAN-2- YLMETHYL ESTER 4- CHLORO-PHENYL ESTER TRIFLUOROACETATE SALT], the pIC50 is 7.10 in the assay with H-460 (setting [1]); 7.17 with MCF-7 (setting [2]); 7.15 in the assay with SF-268 (setting [3]); 7.48 in the assay on CCRF-CEM (setting [4]); 4.10 in the assay with CEM/dCK- (setting [5]). In addition, in the assay with CEM/dCK-, the “Factor* (Resistance Factor = Ratio of dCK- on Wild-type CCRF-CEM)” value turned out to be 2393.
With `COc1ccc(OC(=O)OC[C@H]2OC[C@@H](n3ccc(NC(=O)OCc4ccccc4)nc3=O)O2)cc1` [Compound 116, CARBONIC ACID 4-(4- BENZYLOXYCARBONYLAMINO- 2-OXO-2H-PYRIMIDIN-1- YL)-[1,3]DIOXOLAN-2- YLMETHYL ESTER 4- METHOXY-PHENYL ESTER], the pIC50 with H-460 (setting [1]) was 5.85; with MCF-7 (setting [2]), 6.96; in the assay with SF-268 (setting [3]), 5.60; in the assay with CCRF-CEM (setting [4]) it was 6.42; in the assay on CEM/dCK- (setting [5]) it was < 4.00. Moreover, in the assay with CEM/dCK-, the “Factor* (Resistance Factor = Ratio of dCK- on Wild-type CCRF-CEM)” value was >263.
As for `COC(=O)CCCC(=O)Nc1ccn([C@@H]2CO[C@H](CO)O2)c(=O)n1` [Compound 81, 4-[1-(2-HYDROXYMETHYL- [1,3]DIOXOLAN-4-YL)-2- OXO-1,2-DIHYDRO- PYRIMIDIN-4- YLCARBAMOYL]-BUTYRIC ACID METHYL ESTER], the pIC50 in the assay on H-460 (setting [1]) was 5.51; in the assay with MCF-7 (setting [2]), 5.66; in the assay with SF-268 (setting [3]), 5.10; with CCRF-CEM (setting [4]), 5.92; in the assay with CEM/dCK- (setting [5]), < 4.00. Further, the “Factor* (Resistance Factor = Ratio of dCK- on Wild-type CCRF-CEM)” value in the assay with CEM/dCK- came to 83.
Take `CC(=O)OCC1OC2OC(C)(OC[C@H]3OC[C@@H](n4ccc(N)nc4=O)O3)OC2C(OC(C)=O)C1OC(C)=O` (stereo in doubt) [Compound 151, Acetic acid 6-acetoxy-5-acetoxymethyl-2-[4-(4-amino-2-oxo-2H-pyrimidin-1-yl)-[1,3]dioxolan-2-ylmethoxy]-2-methyl-tetrahydro-[1,3]dioxolo [4,5-b]pyran-7-yl ester]: the pIC50 was 5.01 with H-460 (setting [1]); 5.08 in the assay on MCF-7 (setting [2]); 5.36 with SF-268 (setting [3]); 6.23 with CCRF-CEM (setting [4]); < 4.00 in the assay on CEM/dCK- (setting [5]). The “Factor* (Resistance Factor = Ratio of dCK- on Wild-type CCRF-CEM)” value in the assay with CEM/dCK- is given as >169.
Take `CC(C)(C)C(=O)Nc1ccn([C@@H]2CO[C@H](CO)O2)c(=O)n1` [Compound 49, N-[1-(2-HYDROXYMETHYL- [1,3]DIOXOLAN-4-YL)- CYTOSYL]-2,2-DIMETHYL- PROPIONAMIDE]: the pIC50 with H-460 (setting [1]) was 5.35; in the assay with MCF-7 (setting [2]), 5.06; in the assay with SF-268 (setting [3]), 5.15; in the assay on CCRF-CEM (setting [4]) it was 6.24; with CEM/dCK- (setting [5]), < 4.00. Besides, in the assay with CEM/dCK-, the “Factor* (Resistance Factor = Ratio of dCK- on Wild-type CCRF-CEM)” value came to 175.
Consider `COC(=O)CCCC(=O)Nc1ccn([C@@H]2CO[C@H](COC(=O)CCCC(=O)OC)O2)c(=O)n1` [Compound 80, PENTANEDIOIC ACID 4-[4- (4-METHOXYCARBONYL- BUTYRYLAMINO)-2-OXO- 2#H!-PYRIMIDIN-1-YL]- [1,3]DIOXOLAN-2- YLMETHYL ESTER METHYL ESTER], for which the pIC50 in the assay with H-460 (setting [1]) was 5.74; in the assay with MCF-7 (setting [2]) it was 6.17; in the assay on SF-268 (setting [3]), 5.46; in the assay with CCRF-CEM (setting [4]), 6.34; with CEM/dCK- (setting [5]), < 4.00. For the same molecule, the “Factor* (Resistance Factor = Ratio of dCK- on Wild-type CCRF-CEM)” value with CEM/dCK- is recorded as 217.
In the case of `CCCCCCCC(=O)Nc1ccn([C@@H]2CO[C@H](CO)O2)c(=O)n1` [Compound 55, OCTANOIC ACID [1-(2- HYDROXYMETHYL- [1,3]DIOXOLAN-4-YL)-2- OXO-1, 2-DIHYDRO- PYRIMIDIN-4-YL]-AMIDE], the pIC50 in the assay with H-460 (setting [1]) was 7.54; with MCF-7 (setting [2]) it was 8.11; in the assay with SF-268 (setting [3]) it was 7.33; in the assay with CCRF-CEM (setting [4]), 7.92; in the assay on CEM/dCK- (setting [5]), 4.19. Moreover, the “Factor* (Resistance Factor = Ratio of dCK- on Wild-type CCRF-CEM)” value in the assay on CEM/dCK- is given as 5,333.
For `CCCCCOC(=O)Nc1ccn([C@@H]2CO[C@H](CO)O2)c(=O)n1` [Compound 71, [1-(2-HYDROXYMETHYL- [1,3]DIOXOLAN-4-YL)-2- OXO-1,2-DIHYDRO- PYRIMIDIN-4-YL]- CARBAMIC ACID PENTYL ESTER], the pIC50 with H-460 (setting [1]) is 6.51; with MCF-7 (setting [2]), 6.89; with SF-268 (setting [3]), 6.09; in the assay with CCRF-CEM (setting [4]) it was 6.74; with CEM/dCK- (setting [5]) it was < 4.00. For the same molecule, the “Factor* (Resistance Factor = Ratio of dCK- on Wild-type CCRF-CEM)” value with CEM/dCK- stood at 556.
As for `CC(C(=O)OC[C@H]1OC[C@@H](n2ccc(N)nc2=O)O1)c1ccccc1.Cl` (some centres unmarked) [Compound 106, HYDROCHLORIDE], the pIC50 with H-460 (read-out: IC50 H-460 24 h, 24 h drug exposure, wash, another 48 hr, HYDROCHLORIDE) was 7.85; in the assay with MCF-7 (read-out: IC50 MCF-7 24 h, 24 h drug exposure, wash, another 48 hr, HYDROCHLORIDE), 7.43; with SF-268 (read-out: IC50 SF-268 24 h, 24 h drug exposure, wash, another 48 hr, HYDROCHLORIDE), 7.02; with CCRF-CEM (read-out: IC50 CCRF-CEM 24 h, 24 h drug exposure, wash, another 48 hr, HYDROCHLORIDE), 8.00; in the assay on CEM/dCK- (read-out: IC50 CEM/dCK- 24 h, 24 h drug exposure, wash, another 48 hr, HYDROCHLORIDE), 4.34.
Take `COC(C)(C)OC[C@H]1OC[C@@H](n2ccc(N)nc2=O)O1` [Compound 54, 4-AMINO-1-[2-(1- METHOXY-1-METHYL- ETHOXYMETHYL)- [1,3]DIOXOLAN-4-YL]-1H- PYRIMIDIN-2-ONE]: the pIC50 with H-460 (setting [1]) was 6.77; with MCF-7 (setting [2]) it was 6.30; in the assay on SF-268 (setting [3]) it was 6.15; in the assay with CCRF-CEM (setting [4]) it was 6.92; with CEM/dCK- (setting [5]), 4.19. Further, the “Factor* (Resistance Factor = Ratio of dCK- on Wild-type CCRF-CEM)” value with CEM/dCK- is 542.
On to `CC(C)C(C(=O)OC[C@H]1OC[C@@H](n2ccc(N)nc2=O)O1)N(C)C` (stereo partly drawn) [Compound 156, (2S,4S)-2-(N,N- DIMETHYL-L- VALINYLOXYMETHYL)-4- CYTOSIN-1′-YL-1,3- DIOXOLANE], for which the pIC50 is 6.92 with H-460 (setting [1]); 7.17 in the assay with MCF-7 (setting [2]); 6.03 in the assay with SF-268 (setting [3]); 8.15 in the assay with CCRF-CEM (setting [4]); 4.09 in the assay with CEM/dCK- (setting [5]). Moreover, the “Factor* (Resistance Factor = Ratio of dCK- on Wild-type CCRF-CEM)” value in the assay with CEM/dCK- is on record as 11,571.
For `CN(C)/C=N/c1ccn([C@@H]2CO[C@H](COC(=O)C(C)(C)c3ccccc3)O2)c(=O)n1` [Compound 142, (2S,4S)-2-(2″- DIMETHYLPHENYLACETOXY)M ETHYL-4-(4′-N,N- DIMETHYLAMINOMETHYLENE- CYTOSTN-1,-YL)-1,3- DIOXOLANE], the pIC50 in the assay on H-460 (setting [1]) was 7.42; in the assay on MCF-7 (setting [2]) it was 7.54; with SF-268 (setting [3]), 6.89; in the assay with CCRF-CEM (setting [4]), 8.14; in the assay on CEM/dCK- (setting [5]), 4.34. The “Factor* (Resistance Factor = Ratio of dCK- on Wild-type CCRF-CEM)” value with CEM/dCK- is reported as 6,389.
In the case of `CC(C)(C)OC(=O)N(CCCCC(=O)Nc1ccn([C@@H]2CO[C@H](CO)O2)c(=O)n1)Cc1ccccc1` [Compound 115, BENZYL-{4-[1-(2- HYDROXYMETHYL- [1,3]DIOXOLAN-4-YL)-2- OXO-1,2-DIHYDRO- PYRIMIDIN-4- YLCARBAMOYL]-BUTYL}- CARBAMIC ACID TERT!- BUTYL ESTER], the pIC50 was 6.42 in the assay on H-460 (setting [1]); 6.82 in the assay on MCF-7 (setting [2]); 6.21 in the assay with SF-268 (setting [3]); 6.70 in the assay on CCRF-CEM (setting [4]); < 4.00 in the assay on CEM/dCK- (setting [5]). The “Factor* (Resistance Factor = Ratio of dCK- on Wild-type CCRF-CEM)” value in the assay on CEM/dCK- is reported as >500.
For `CC(C)(C)OC(=O)N(CCCCC(=O)Nc1ccn([C@@H]2CO[C@H](COC(=O)CCCCN(Cc3ccccc3)C(=O)OC(C)(C)C)O2)c(=O)n1)Cc1ccccc1` [Compound 114, 5-(BENZYL-TERT- BUTOXYCARBONYL-AMINO)- PENTANOIC ACID 4-{4-[5- (BENZYL-TERT- BUTOXYCARBONYL-AMINO)- PENTANOYLAMINO]-2-OXO- 2H!PYRIMIDIN-1-YL}- [1,3]DIOXOLAN-2- YLMETHYL ESTER], the pIC50 in the assay on H-460 (setting [1]) is 7.18; with MCF-7 (setting [2]), 7.77; with SF-268 (setting [3]) it was 7.39; in the assay on CCRF-CEM (setting [4]) it was 7.80; in the assay on CEM/dCK- (setting [5]), 5.10. Further, the “Factor* (Resistance Factor = Ratio of dCK- on Wild-type CCRF-CEM)” value in the assay on CEM/dCK- is recorded as 500.

Values taken from patent US20030013660A1, “Dioxolane analogs for improved inter-cellular delivery” (Shire BioChem Inc., priority 2000, published 2003).
